Measurements published in patent US20070155746A1, “NOVEL SUBSTITUTED PYRIDINYLOXY AND PYRIMIDINYLOXY AMIDES USEFUL AS INHIBITORS OF PROTEIN KINASES” (KALYPSYS, INC., priority 2005, published 2007).

Tests used:
Type in all cases: biochemical
VEGFR2 kinase = molecular target: T1, VEGFR2 kinase (Homo sapiens, UniProt P35968); experiment: In vitro VEGFR2 kinase assay
T1 construct: purchased Invitrogen Inc PV3660
Experimental: (§1) In Vitro VEGFR2 and PDGFRP Kinase Assays
(§2) 2.5 μl of ADP Quest assay buffer (DiscoverX Inc., cat. #90-0071) containing 20 ng VEGFR2 kinase (Invitrogen Inc, cat. #PV3660) or 25 ng PDGFRβ kinase (Invitrogen Inc., cat. #P3082) is dispensed to wells of a 1536 multi-well, black solid plate. 60 nl of 100× concentration of test compound in DMSO is dispensed to the well by passive pin transfer and incubated for 10 minutes at room temperature (approx. 22° C.). 2.5 μl of ADP Quest assay buffer containing 0.25 μg of poly Glu:Tyr (4:1) substrate peptide (Upstate Inc., cat. #12-440) and 60 μM ATP is then dispensed and the kinase reaction allowed to incubate at 30° C. for 2 hours. The assay plates are sealed and maintained in a humidified environment. After the 2 hour incubation, 2 μl of ADP Quest assay reagent A, followed by 2 μl of assay reagent B, is added. After an additional 30 minute incubation at room temperature, fluorescence intensity is measured on a Molecular Devices Aquest multi-mode plate reader or other suitable plate reader (fluorescence excitation filter: 530/25 [Peak(nm)/FWHM passband(nm)]; dichroic beamsplitter: 561 nm longpass; fluorescence emission filter: 580/10 [Peak(nm)/FWHM passband(nm)]. The assay measures the conversion of a non-fluoresecent molecule to fluorescent resorufin, which correlates with kinase activity. Negative control activity is measured with DMSO lacking any test compound. The positive control is [N-(3-trifluoromethyl-4-chlorophenyl)-N′-(4-(2-methylcarbamoyl-pyridin-4-yl)oxyphenyl)urea], aka Bay 43-9006. Efficacy is measured as a percentage of positive control activity.

PDGFRβ kinase = molecular target: T2, PDGFRβ kinase (Homo sapiens, UniProt P09619); experiment: In vitro PDGFRβ kinase assay
T2 construct: purchased Invitrogen Inc. P3082
T2 sequence (P09619 33-1106): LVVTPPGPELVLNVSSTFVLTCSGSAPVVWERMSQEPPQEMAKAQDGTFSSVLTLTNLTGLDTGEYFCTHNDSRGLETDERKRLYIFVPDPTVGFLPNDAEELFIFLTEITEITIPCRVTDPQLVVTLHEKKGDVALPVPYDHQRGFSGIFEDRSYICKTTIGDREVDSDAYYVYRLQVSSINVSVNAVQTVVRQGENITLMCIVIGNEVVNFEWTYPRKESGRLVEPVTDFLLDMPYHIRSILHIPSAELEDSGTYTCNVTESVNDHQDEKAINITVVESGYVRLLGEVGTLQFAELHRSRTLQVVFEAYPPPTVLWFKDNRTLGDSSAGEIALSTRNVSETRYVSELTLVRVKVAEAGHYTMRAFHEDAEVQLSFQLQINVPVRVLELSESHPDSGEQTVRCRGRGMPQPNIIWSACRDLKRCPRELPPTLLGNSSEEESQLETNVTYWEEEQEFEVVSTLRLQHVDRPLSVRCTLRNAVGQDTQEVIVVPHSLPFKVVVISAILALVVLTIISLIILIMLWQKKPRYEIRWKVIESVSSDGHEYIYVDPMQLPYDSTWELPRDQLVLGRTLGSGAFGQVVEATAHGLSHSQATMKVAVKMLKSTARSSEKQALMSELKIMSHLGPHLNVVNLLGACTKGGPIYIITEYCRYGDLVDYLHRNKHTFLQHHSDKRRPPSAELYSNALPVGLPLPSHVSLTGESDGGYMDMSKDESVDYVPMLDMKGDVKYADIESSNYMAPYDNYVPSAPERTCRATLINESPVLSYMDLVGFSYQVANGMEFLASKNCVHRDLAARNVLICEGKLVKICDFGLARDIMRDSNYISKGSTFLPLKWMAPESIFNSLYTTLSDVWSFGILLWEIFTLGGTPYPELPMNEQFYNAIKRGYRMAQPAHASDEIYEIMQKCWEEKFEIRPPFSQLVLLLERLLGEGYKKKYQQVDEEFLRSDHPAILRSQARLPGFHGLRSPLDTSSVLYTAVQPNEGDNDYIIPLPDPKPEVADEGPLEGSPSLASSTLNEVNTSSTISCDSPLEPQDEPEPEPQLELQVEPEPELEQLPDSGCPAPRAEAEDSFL
Experimental: as §1, §2

[1] = molecular target: T3, human B-Raf protein kinase (Homo sapiens, UniProt P15056); experiment: In vitro B-Raf/Mek1 composite kinase assay
T3 construct: GST (N); purchased Upstate Inc. 14-530 (B-Raf); 14-420 (Mek1)
T3 sequence (P15056 416-766): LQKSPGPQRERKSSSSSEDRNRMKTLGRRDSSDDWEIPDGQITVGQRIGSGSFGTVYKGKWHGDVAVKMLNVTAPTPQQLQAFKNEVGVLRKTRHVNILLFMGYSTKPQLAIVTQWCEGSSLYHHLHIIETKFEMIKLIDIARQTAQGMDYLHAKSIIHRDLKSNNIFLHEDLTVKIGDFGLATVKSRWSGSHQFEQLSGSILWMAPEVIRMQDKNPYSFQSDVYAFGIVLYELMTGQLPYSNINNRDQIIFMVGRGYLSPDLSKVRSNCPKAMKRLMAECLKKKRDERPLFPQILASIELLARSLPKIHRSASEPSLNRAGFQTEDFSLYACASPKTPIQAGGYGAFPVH
Experimental: In Vitro B-Raf/Mek1 Composite Kinase Assay
2.5 μl of B-Raf kinase buffer (20 mM MOPS [pH 7.2], 25 mM sodium glycerophosphate, 2 mM EGTA [pH 8.0], 1 mM sodium orthovanadate, 1 mM dithiothreitol, 10 mM MgCl2, 0.03% Brij-35, 0.3 mg/ml bovine serum albumin) containing lng of recombinant, N-terminal GST-tagged human B-Raf protein kinase (Δ1-415, Upstate Inc., cat. #14-530) is dispensed to wells of a 1536 multi-well white solid plate. 60 nl of 100× concentration of test compound in DMSO is dispensed to the well by passive pin transfer and incubated for 15 minutes at room temperature (approx. 22° C.). […] The assay plates are sealed and maintained in a humidified environment. After 2 hours, 2.5 μl of PKLight protein kinase assay reagent (Cambrex, cat. #LT07-501) is dispensed. After an additional 5 minute incubation at room temperature, luminescence activity is measured on a Molecular Devices Analyst multi-mode plate reader or other suitable plate reader. Kinase inhibition results in less ATP depletion, and therefore increased luminescence signal. Negative control activity is measured with DMSO lacking any test compound. The positive control is [N-(3-trifluoromethyl-4-chlorophenyl)-N′-(4-(2-methylcarbamoyl-pyridin-4-yl)oxyphenyl)urea], aka Bay 43-9006. Efficacy is measured as a percentage of positive control activity.

T1 sequence (P35968 20-1356): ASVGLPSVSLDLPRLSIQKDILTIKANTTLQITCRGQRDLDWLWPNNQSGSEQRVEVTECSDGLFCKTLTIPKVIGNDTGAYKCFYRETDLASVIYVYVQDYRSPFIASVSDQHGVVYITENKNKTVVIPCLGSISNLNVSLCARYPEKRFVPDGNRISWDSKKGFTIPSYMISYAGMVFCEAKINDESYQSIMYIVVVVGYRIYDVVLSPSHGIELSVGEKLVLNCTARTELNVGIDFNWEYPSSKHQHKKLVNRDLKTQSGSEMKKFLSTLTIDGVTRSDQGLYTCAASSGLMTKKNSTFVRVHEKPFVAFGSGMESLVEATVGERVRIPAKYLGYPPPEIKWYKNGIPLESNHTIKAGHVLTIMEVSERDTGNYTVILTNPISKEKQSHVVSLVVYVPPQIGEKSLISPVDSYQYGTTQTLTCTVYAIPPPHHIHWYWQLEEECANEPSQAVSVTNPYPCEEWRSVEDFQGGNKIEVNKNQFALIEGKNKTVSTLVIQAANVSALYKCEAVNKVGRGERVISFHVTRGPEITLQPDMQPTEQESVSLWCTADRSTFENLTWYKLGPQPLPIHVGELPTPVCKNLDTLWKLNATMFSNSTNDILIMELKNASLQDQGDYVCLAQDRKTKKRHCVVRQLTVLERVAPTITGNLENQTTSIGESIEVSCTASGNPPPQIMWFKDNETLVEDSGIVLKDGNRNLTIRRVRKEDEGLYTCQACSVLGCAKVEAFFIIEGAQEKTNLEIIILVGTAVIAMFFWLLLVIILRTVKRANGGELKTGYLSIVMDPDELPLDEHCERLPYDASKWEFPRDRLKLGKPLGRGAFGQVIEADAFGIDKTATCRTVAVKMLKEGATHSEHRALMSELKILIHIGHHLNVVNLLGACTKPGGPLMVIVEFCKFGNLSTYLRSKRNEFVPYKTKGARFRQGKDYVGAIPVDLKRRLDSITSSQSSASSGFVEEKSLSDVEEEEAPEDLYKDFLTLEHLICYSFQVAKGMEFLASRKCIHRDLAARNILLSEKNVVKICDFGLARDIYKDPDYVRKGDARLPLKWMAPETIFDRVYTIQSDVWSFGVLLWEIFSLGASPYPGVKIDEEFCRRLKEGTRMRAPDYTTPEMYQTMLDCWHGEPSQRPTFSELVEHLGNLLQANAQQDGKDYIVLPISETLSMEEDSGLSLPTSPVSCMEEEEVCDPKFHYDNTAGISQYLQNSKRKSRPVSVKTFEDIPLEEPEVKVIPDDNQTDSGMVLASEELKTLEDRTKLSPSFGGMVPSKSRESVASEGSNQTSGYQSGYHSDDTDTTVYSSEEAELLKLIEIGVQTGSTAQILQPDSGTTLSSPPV

Row | SMILES | IC50 (VEGFR2 kinase) [µM] | IC50 (PDGFRβ kinase) [µM] | IC50 [1] [µM]
1 | CNC(=O)c1cc(Oc2cccc(NC(=O)c3ccc(OC)c(OC4CCCC4)c3)c2)ccn1 [Example 15, 4-(3-(3-(Cyclopentyloxy)-4-methoxybenzamido)phenoxy)-N-methylpicolinamide] | ≤ 10 | ≤ 10 | > 10
2 | Cn1cc(-c2cc(Oc3cccc(NC(=O)c4ccc(Cl)c(C(F)(F)F)c4)c3)ccn2)cn1 [Example 21, 4-Chloro-N-(3-(2-(1-methyl-1H-pyrazol-4-yl)pyridin-4-yloxy)phenyl)-3-(trifluoromethyl)benzamide] | > 10 | > 10 | > 10
3 | Cn1cc(-c2cc(Oc3ccc(NC(=O)c4ccc(Cl)c(C(F)(F)F)c4)cc3)ccn2)cn1 [Example 22, 4-Chloro-N-(4-(2-(1-methyl-1H-pyrazol-4-yl)pyridin-4-yloxy)phenyl)-3-(trifluoromethyl)benzamide] | ≤ 10 | ≤ 10 | ≤ 10
4 | Cn1cc(-c2nccc(Oc3cccc(NC(=O)c4ccc(OC(F)(F)F)cc4)c3)n2)cn1 [Example 27, N-{3-[2-(1-Methyl-1H-pyrazol-4-yl)-pyrimidin-4-yloxy]-phenyl}-4-trifluoromethoxy-benzamide] | > 10 | > 10 | > 10
5 | CN(C)c1cccc(C(=O)Nc2cccc(Oc3ccnc(-c4cnn(C)c4)c3)c2)c1 [Example 28, 3-(Dimethylamino)-N-(3-(2-(1-methyl-1H-pyrazol-4-yl)pyridin-4-yloxy)phenyl)benzamide] | > 10 | > 10 | > 10
6 | Cn1cc(-c2cc(Oc3cccc(NC(=O)c4cccc5c4OCO5)c3)ccn2)cn1 [Example 29, N-(3-(2-(1-Methyl-1H-pyrazol-4-yl)pyridin-4-yloxy)phenyl)benzo[d][1,3]dioxole-4-carboxamide] | > 10 | > 10 | ≤ 10
7 | Cn1cc(-c2cc(Oc3cccc(NC(=O)c4cccc5c4OC(F)(F)O5)c3)ccn2)cn1 [Example 30, 2,2-Difluoro-N-(3-(2-(1-methyl-1H-pyrazol-4-yl)pyridin-4-yloxy)phenyl)benzo[d][1,3]dioxole-4-carboxamide] | > 10 | > 10 | > 10
8 | Cn1cc(-c2cc(Oc3cccc(NC(=O)c4cccc(-c5ccccc5)c4)c3)ccn2)cn1 [Example 31, N-(3-(2-(1-Methyl-1H-pyrazol-4-yl)pyridin-4-yloxy)phenyl)biphenyl-3-carboxamide] | > 10 | > 10 | > 10
9 | Cn1cc(-c2cc(Oc3cccc(NC(=O)c4cccc(-c5ccccn5)c4)c3)ccn2)cn1 [Example 32, N-(3-(2-(1-Methyl-1H-pyrazol-4-yl)pyridin-4-yloxy)phenyl)-3-(pyridin-2-yl)benzamide] | > 10 | > 10 | > 10
10 | Cn1cc(-c2cc(Oc3cccc(NC(=O)c4cccc(-c5cccnc5)c4)c3)ccn2)cn1 [Example 33, N-(3-(2-(1-Methyl-1H-pyrazol-4-yl)pyridin-4-yloxy)phenyl)-3-(pyridin-3-yl)benzamide] | ≤ 10 | > 10 | > 10
11 | Cn1cc(-c2cc(Oc3cccc(NC(=O)c4cccc(-c5ccncc5)c4)c3)ccn2)cn1 [Example 34, N-(3-(2-(1-Methyl-1H-pyrazol-4-yl)pyridin-4-yloxy)phenyl)-3-(pyridin-4-yl)benzamide] | > 10 | > 10 | > 10
12 | Cn1cc(-c2cc(Oc3cccc(NC(=O)c4cncc(-n5cccc5)c4)c3)ccn2)cn1 [Example 35, N-(3-(2-(1-Methyl-1H-pyrazol-4-yl)pyridin-4-yloxy)phenyl)-5-(1H-pyrrol-1-yl)nicotinamide] | > 10 | > 10 | > 10
13 | Cn1cc(-c2cc(Oc3cccc(NC(=O)c4ccccc4-n4ccnc4)c3)ccn2)cn1 [Example 36, 2-(1H-Imidazol-1-yl)-N-(3-(2-(1-methyl-1H-pyrazol-4-yl)pyridin-4-yloxy)phenyl) benzamide] | ≤ 10 | ≤ 10 | > 10
14 | Cn1cc(-c2cc(Oc3cccc(NC(=O)c4cccc(-n5ccnc5)c4)c3)ccn2)cn1 [Example 37, 3-(1H-Imidazol-1-yl)-N-(3-(2-(1-methyl-1H-pyrazol-4-yl)pyridin-4-yloxy)phenyl) benzamide] | > 10 | > 10 | > 10
15 | Cn1cc(-c2cc(Oc3cccc(NC(=O)c4cccc(-n5cnnc5)c4)c3)ccn2)cn1 [Example 38, N-(3-(2-(1-Methyl-1H-pyrazol-4-yl)pyridin-4-yloxy)phenyl)-3-(4H-1,2,4-triazol-4-yl)benzamide] | ≤ 10 | > 10 | ≤ 10
16 | Cn1cc(-c2cc(Oc3cccc(NC(=O)c4ccccc4OC(F)(F)F)c3)ccn2)cn1 [Example 39, N-(3-(2-(1-Methyl-1H-pyrazol-4-yl)pyridin-4-yloxy)phenyl)-2-(trifluoromethoxy)benzamide] | > 10 | > 10 | ≤ 10
17 | Cn1cc(-c2cc(Oc3cccc(NC(=O)c4cccc(OC(F)(F)F)c4)c3)ccn2)cn1 [Example 40, N-(3-(2-(1-Methyl-1H-pyrazol-4-yl)pyridin-4-yloxy)phenyl)-3-(trifluoromethoxy)benzamide] | > 10 | > 10 | > 10

Further lines, results first:

Row | IC50 (VEGFR2 kinase) [µM] | IC50 (PDGFRβ kinase) [µM] | IC50 [1] [µM] | SMILES
18 | > 10 | > 10 | > 10 | CCOc1cc(OCC)cc(C(=O)Nc2cccc(Oc3ccnc(C(=O)NC)c3)c2)c1 [Example 14, 4-(3-(3,5-Diethoxybenzamido)phenoxy)-N-methylpicolinamide]
19 | > 10 | > 10 | > 10 | CCOc1cc(OCC)cc(C(=O)Nc2cc(Oc3cc(-c4cnn(C)c4)ncn3)ccc2F)c1 [Example 17, 3,5-Diethoxy-N-(2-fluoro-5-(6-(1-methyl-1H-pyrazol-4-yl)pyrimidin-4-yloxy)phenyl)benzamide]
20 | ≤ 10 | ≤ 10 | > 10 | CCOc1cc(OCC)cc(C(=O)Nc2cccc(Oc3cc(-c4nc(C(F)(F)F)c[nH]4)ncn3)c2)c1 [Example 18, 3,5-Diethoxy-N-(3-(6-(4-(trifluoromethyl)-1H-imidazol-2-yl)pyrimidin-4-yloxy)phenyl)benzamide]
21 | ≤ 10 | ≤ 10 | ≤ 10 | CCOc1cc(OCC)cc(C(=O)Nc2ccc(Oc3ccnc(-c4cnn(C)c4)c3)cc2)c1 [Example 20, 3,5-Diethoxy-N-(4-(2-(1-methyl-1H-pyrazol-4-yl)pyridin-4-yloxy)phenyl)benzamide]
22 | > 10 | > 10 | > 10 | Cn1cc(-c2cc(Oc3cccc(NC(=O)c4ccc(OC(F)(F)F)cc4)c3)ncn2)cn1 [Example 23, N-(3-(6-(1-Methyl-1H-pyrazol-4-yl)pyrimidin-4-yloxy)phenyl)-4-(trifluoromethoxy)benzamide]
23 | > 10 | ≤ 10 | > 10 | CCOc1cc(OCC)cc(C(=O)Nc2cccc(Oc3cc(-c4cnn(C)c4)ncn3)c2)c1 [Example 24, 3,5-Diethoxy-N-(3-(6-(1-methyl-1H-pyrazol-4-yl)pyrimidin-4-yloxy)phenyl)benzamide]
24 | > 10 | > 10 | > 10 | Cn1cc(-c2cc(Oc3cccc(NC(=O)c4ccc(Cl)c(C(F)(F)F)c4)c3)ncn2)cn1 [Example 25, 4-Chloro-N-(3-(6-(1-methyl-1H-pyrazol-4-yl)pyrimidin-4-yloxy)phenyl)-3-(trifluoromethyl)benzamide]
25 | > 10 | > 10 | > 10 | Cn1cc(-c2cc(Oc3ccc(F)c(NC(=O)c4ccc(Cl)c(C(F)(F)F)c4)c3)ncn2)cn1 [Example 26, 4-Chloro-N-(2-fluoro-5-(6-(1-methyl-1H-pyrazol-4-yl)pyrimidin-4-yloxy)phenyl)-3-(trifluoromethyl)benzamide]
